The text below walks through data of patent US20110003000A1, “Transvaginal Delivery of Drugs” (FemmePharma Holding Company, Inc., priority 2009, published 2011).

Structures are written as SMILES. Counter-ions that a name gives are not always drawn.

The subject of data set [1] is urgency incontinence; urinary frequency, urgency and nocturia. In words: Clinical case reports of transvaginal oxybutynin. It is filed as in vivo, human. The following applies: person. The procedure: A person developed urgency incontinence two years after their laparoscopically assisted transvaginal hysterectomy. […] Two weeks later, they started applying oxybutynin (5 mg) into the vagina at bed time, instead of Ditropan XL. […] The patient used transvaginal oxybutynin (5 mg) at bed time for 6 months.
A person with a history of chronic pelvic pain and multiple surgical procedures, including pain mapping under conscious sedation and repair of occult bilateral inguinal hernias, developed urinary frequency, urgency and nocturia. Their urine analysis and urine culture were negative for signs of urinary tract infection. Their treatment began with transvaginal oxybutynin (5 mg) once daily, at bed time, applied into the vagina.

The subject of data set [2] is persistent urge incontinence. The following applies: intravesical administration; eleven patients; cited from earlier work.
Setting [3] is: 5 mg into the vagina at bed time.
[4] abbreviates: 5 mg into the vagina twice daily.
The mark [5] stands for this setting: transvaginal 5 mg at bed time for 6 months.

For `CCN(CC)CC#CCOC(=O)C(O)(c1ccccc1)C1CCCCC1` (stereo not shown) [oxybutynin], in data set [1] (setting [3]), the side effects result is reported as “did not experience any noticeable side effects” and the urgency symptoms entry is “improved remarkably”. Besides, in data set [1] (setting [4]), the improvement of symptoms entry is “remarkable improvement” and the side effects result is listed as “no significant side effects”. In data set [1] (setting [5]), the “control of symptoms of urgency incontinence throughout the treatment period” value is “remained effective” and the “side effects throughout the treatment period” value was “did not suffer from any side effects”. For the same compound, the “improvement of urinary frequency, urgency and nocturia” value in data set [1] (transvaginal 5 mg once daily at bed time) is given as “significant improvement”.
Regarding `Cc1ccc(O)c([C@H](CCN(C(C)C)C(C)C)c2ccccc2)c1` [DETROL, tolterodine tartrate], the “improvement of urgency incontinence” value in data set [1] (2 mg orally twice a day) is “slight improvement”.
As for `CCN(CC)CC#CCOC(=O)C(O)(c1ccccc1)C1CCCCC1` (stereo not shown) [oxybutynin chloride], in data set [2], the “patients reporting improvement and becoming totally continent” value is listed as “Ten out of eleven”; the side effects entry is “no side effects were observed”.
